In patent US10919862B2, “Fused imidazoles as mIDH1 inhibitors” (BAYER PHARMA AKTIENGESELLSCHAFT, priority 2015, dated 2021):

Experiments:
IDH1 R132H enzyme = IDH1 R132H enzyme (Homo sapiens (Human), UniProt O75874, R132H); experiment: Mutant IDH1 R132H biochemical assay; conditions: NADPH consumption, luminescent readout; 1.5 nM enzyme, 1 μM NADPH, 250 μM α-KG, 30 minutes, 32° C.
Experimental: Mutant IDH1 R132H Biochemical Assay
mIDH1 catalyzes the NADPH-dependent reduction of alpha-ketoglutarate (α-KG) to (2R)-2-hydroxyglutarate (2-HG). NADPH consumption was measured by luminescent readout.
The biochemical reactions were performed at 32° C. in 384-well plates using a reaction volume of 41 μL and the following assay buffer conditions: 50 mM Tris pH 7.5, 100 mM NaCl, 20 mM MgCl2, 0.05% BSA, 0.01% Brij, 1 μM NADPH, and 250 μM α-KG. The IDH1 R132H enzyme was used in a final concentration of 1.5 nM. Test compounds were used in a concentration range between 0.002 and 10 μM. The final DMSO concentration was 2.4%.
The reaction was incubated for 30 minutes, then 40 μL of detection mix (0.75 μg/ml Luciferase, 0.02 U/ml Oxidoreductase, 4 μg/mL FMN, 2 μL/ml decanal/ethanol, 50 mM Tris pH 7.5, 0.5% Glycerin, 0.01% Tween-20, 0.05% BSA) was added. Luminescence was measured on a luminescent reader (10 seconds measuring time, 1 second integration period, 30% sensitivity). The decrease in luminescence is proportional to mIDH1 activity. IC50 values are determined by interpolation from plots of relative luminescence versus inhibitor concentration.

LN229 R132H cells = experiment: Mutant IDH1 cellular assay; type: cell-based; conditions: Homo sapiens, LN-229; 2-HG levels in medium of LN229 R132H cells, 24 hours, fluorescence readout
Experimental: Mutant IDH1 Cellular Assay
Levels of (2R)-2-hydroxyglutarate (2HG) were measured in medium of a cell line with overexpression of mutated isocitrate dehydrogenase (mIDH) protein. mIDH catalyzes the NADPH-dependent reduction of alpha-ketoglutarate to 2-HG. Cells (LN229 R132H, Mohrenz et al., Apoptosis (2013) 18:1416-1425) were grown in DMEM containing 10% FCS. They were harvested by trypsin and seeded into 96-well plates. Cells were incubated overnight at 37° C. in 5% CO2. The next day test compounds were added to each cell well. The final concentration of DMSO was 0.1% and DMSO controls were included. The plates were then placed in an incubator for 24 hours.
2-HG was measured according to Balss et al. (Acta Neuropathol (2012) 124: 883-891). Briefly, perchloric acid was added to each well and the plates were centrifuged. Aliquots are removed and incubated with hydroxyglutarate dehydrogenase (HGDH), diaphorase, NAD+, and resazurin. The conversion of resazurin to resorufin was detected by fluorescence spectroscopy at Ex 540 nm Em 600 nm. The increase in fluorescence is proportional to 2-HG production. IC50 values are determined by interpolation from plots of relative fluorescence vs inhibitor concentration.

Chain of IDH1 R132H enzyme (O75874 whole entry R132H): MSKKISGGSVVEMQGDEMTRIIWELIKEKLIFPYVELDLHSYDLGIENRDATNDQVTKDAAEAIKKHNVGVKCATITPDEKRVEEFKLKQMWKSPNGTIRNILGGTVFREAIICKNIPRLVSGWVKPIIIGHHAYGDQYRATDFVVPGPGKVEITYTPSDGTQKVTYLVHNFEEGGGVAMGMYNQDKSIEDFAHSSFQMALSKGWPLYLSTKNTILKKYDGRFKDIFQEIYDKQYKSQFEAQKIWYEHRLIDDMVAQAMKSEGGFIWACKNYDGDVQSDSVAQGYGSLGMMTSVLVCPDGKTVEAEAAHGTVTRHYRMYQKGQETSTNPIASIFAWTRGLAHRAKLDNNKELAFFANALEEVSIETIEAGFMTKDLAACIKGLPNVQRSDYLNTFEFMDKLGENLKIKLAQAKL

| SMILES | IC50 (IDH1 R132H enzyme) | IC50 (LN229 R132H cells) |
| --- | --- | --- |
| C[C@H]1C[C@@H](n2c(Nc3ccc(OC(F)(F)F)cc3)nc3cc(C(=O)O)ccc32)CC(C)(CO)C1 (stereo partly drawn) [Example 2-1, 1-[(1R,5R)-3-(hydroxymethyl)-3,5-dimethylcyclohexyl]-2-{[4-(trifluoromethoxy)-phenyl]amino}-1H-benzimidazole-5-carboxylic acid] | 500 nM | – |
| C[C@H]1C[C@@H](n2c(Nc3ccc(OC(F)(F)F)cc3)nc3cc(C(=O)O)ccc32)CC(C)(C)[C@@H]1O [Example 2-2, 1-[(1R,4R,5S)-4-hydroxy-3,3,5-trimethylcyclohexyl]-2-{[4-(trifluoromethoxy)-phenyl]amino}-1H-benzimidazole-5-carboxylic acid] | 4800 nM | – |
| CC1(C)C[C@@H](CO)C[C@@H](n2c(Nc3ccc(OC(F)(F)F)cc3)nc3cc(CCC(=O)O)ccc32)C1 [Example 2-3, 3-(1-[(1R,5R)-5-(hydroxymethyl)-3,3-dimethylcyclohexyl]-2-{[4-(trifluoromethoxy)-phenyl]amino}-1H-benzimidazol-5-yl)propanoic acid] | 180 nM | 1200 nM |
| C[C@H]1C[C@@H](n2c(Nc3ccc(OC(F)(F)F)cc3)nc3cc(CCC(=O)O)ccc32)CC(C)(CO)C1 (stereo partly drawn) [Example 2-4, 3-(1-[(1R,5R)-3-(hydroxymethyl)-3,5-dimethylcyclohexyl]-2-{[4-(trifluoromethoxy)-phenyl]amino}-1H-benzimidazol-5-yl)propanoic acid] | 270 nM | 2200 nM |
| C[C@H]1C[C@@H](n2c(Nc3ccc(OC(F)(F)F)cc3)nc3cc(CCC(=O)O)ccc32)CC(C)(C)[C@@H]1O [Example 2-5, 3-(1-[(1R,4R,5S)-4-hydroxy-3,35-trimethylcyclohexyl]-2-{[4-(trifluoromethoxy)-phenyl]amino}-1H-benzimidazol-5-yl)propanoic acid] | 4100 nM | – |
| CC1(C)C[C@@H](n2c(Nc3ccc(OC(F)(F)F)cc3)nc3cnccc32)C[C@@](C)(CO)C1 [Example 2-6, [(1 S,5R)-1,3,3-trimethyl-5-(2-{[4-(trifluoromethoxy)phenyl]amino}-1H-imidazo-[4,5-c]pyridin-1-yl)cyclohexyl]methanol] | 30 nM | 1600 nM |
